Test results reported in patent US20060182805A1, “Dosage form and method for sustained release of substituted pyrazine compound” (Jazz Pharmaceuticals, priority 2005, published 2006).
Read-outs that look alike come from different tables or passages of the source.

Assays:
[1] = In vitro release rate (dissolution) from dosage forms, FIG. 3-5; assay type: physicochemical
Experimental: By “dissolution rate” or “release rate” is intended the amount of active agent released in vitro from a dosage form per unit time into a release medium, usually in units of milligrams per hour (mg/hr). In vitro release rates are performed on dosage forms placed in metal coil sample holders attached to a USP Type VII bath indexer in a constant temperature water bath at 37° C. In addition, other appropriate dissolution test apparatuses may be suitable, such as, USP apparatus I or II. Aliquots of the release rate solutions are injected into a chromatographic system to quantify the amounts of drug released during each testing interval. According to the invention, between 2 and 50% of the dose is released following two hours after exposure of the dosage form to the environment of use. These dissolution rates may be between 2 and 60% or 10 and 50% within the first 4 hours, between about 20 and 80% or 35 and 70% from 4 hours to about 8 hours following exposure to the environment of use between about 35 and 95% or 45 and 85% from 8 hours to about 12 hours following exposure to the environment of use and greater than 50 to 80% or greater than 90% following 12 hours after exposure to the environment of use and greater than 90% following 22 hours after exposure to the environment of use.

[2] = Pharmacokinetics of the drug after single oral dose (volume of distribution, half lives); assay type: in vivo; settings: for half-life: human, plasma, oral
Experimental: In this case, the drug is eliminated rapidly from the plasma via distribution into other tissues as well as through metabolism and excretion into the urine. The rapid elimination makes it necessary to deliver the drug into the GI tract for extended periods of time, up to about 24 hours. It may also require that the drug be delivered in an ascending profile such as that shown in this FIG. 5. Such ascending profile may be accomplished by increasing the dose from an initial dose in two to five increments to achieve a desired maximum dose or by delivering a dosage form with an ascending profile for the initial two to five doses. Such doses may be delivered every 24 hours or every 12 hours.
A steady state plasma profile occurs after the administration of two to three doses. The achievement of steady state with the desirable Cmax/Cmin ratio after the administration of very few doses is advantageous in that therapeutic levels are achieved in a short time and maintained thereafter. Rapid attainment of steady state allows for faster increases or decreases in dose without unwanted side effects and the resultant titration to a therapeutically effective dose and, if necessary, withdrawal of therapy. The Cmax/Cmin ratio at steady state is less than 3, often less than 2, often less than 1.5 and between 1.0 and 2.

Question: Which results are given for `Nc1cnc(-c2cc(Cl)cc(Cl)c2Cl)c(N)n1` [3-(2,3,5-trichloro-phenyl)-pyrazine-2,6-diamine]?
Answer: period of release, controlled and increasing dose ([1]; ascending release profile, FIG. 5): 24 h; period of release of active agent ([1]; first-order release profile, FIG. 4): about 20 hours; amount released ([1]; first-order release profile, after 11 hours, FIG. 4): 90%; period of release of active agent ([1]; zero-order release profile, FIG. 3): about 20 hours; amount released ([1]; zero-order release profile, after 16 hours, FIG. 3): 90%; half-life ([2]; read-out: final half life of the drug): 10 to 13 h; half-life ([2]; read-out: initial half life of the drug): < 5 h; volume of distribution (Vd) ([2]; single oral dose): about 640 liters
